Tested on: GNS166 cells
Experiment: Microarray whole-transcriptome gene expression analysis
Assay type: cell-based, human
Procedure: Whole-transcriptome analysis was performed from 300 ng of RNA using HuGene-2_0-st-v1 expression array (Affymetrix), which covers 48,226 transcripts. Raw data were first checked for quality purposes through the Affymetrix® Expression Console™ Software v1.4.1 and TAC software v4.0. Then, data were normalized using the Robust Multi-array Average (RMA) and analyzed by Limma tool. Probesets with FDR-corrected p-values smaller than 0.05 were selected. Functional enrichment on Gene Ontology (GO) biological processes was performed on a smaller subset of the differentially expressed genes (corrected p-value < 0.001) by means of Broad Institute GSEA. […] The data that support this study have been deposited in NCBI´s Gene Expression Omnibus and are accessible through GEO series accession number GSE143887.

[1] = sheet DMSO-SAHA_DOWN, microarray

Compound: O=C(CCCCCCC(=O)Nc1ccccc1)NO [SAHA, Suberoylanilide hydroxamic acid]
- logFC TTC7B (transcript TC1400009967.hg.1) [1]: -1.063
- logFC TTC28 (transcript TC2200008356.hg.1) [1]: -1.091
- logFC TXNDC15 (transcript TC0500008705.hg.1) [1]: -1.511
- logFC USE1 (transcript TC1900007313.hg.1) [1]: -1.0842
- logFC VCAN (transcript TC0500007972.hg.1) [1]: -1.305
- logFC YAP1 (transcript TC1100008904.hg.1) [1]: -1.463
- logFC ZDHHC4 (transcript TC0700006649.hg.1) [1]: -0.9579
- logFC ZNF43 (transcript TC1900010163.hg.1) [1]: -0.8461
- logFC ZNF107 (transcript TC0700013370.hg.1) [1]: -1.056
- logFC ZNF805 (transcript TC1900008988.hg.1) [1]: -0.8747
- logFC geneSymbol NA (transcript 23064083) [1]: -1.061
- logFC geneSymbol NA (transcript 23066345) [1]: -1.581
- logFC geneSymbol NA (transcript 23066351) [1]: -1.258
- logFC geneSymbol NA (transcript 23066370) [1]: -1.256
- logFC geneSymbol NA (transcript 23066378) [1]: -1.258
- logFC geneSymbol NA (transcript 23075414) [1]: -1.568
- logFC geneSymbol NA (transcript 23075613) [1]: -0.9478
- logFC geneSymbol NA (transcript 23075631) [1]: -0.8653
- logFC geneSymbol NA (transcript 23075715) [1]: -0.9535
- logFC geneSymbol NA (transcript 23075786) [1]: -0.9478
- logFC geneSymbol NA (transcript 23075802) [1]: -0.9222
- logFC geneSymbol NA (transcript 23075888) [1]: -0.8842
- logFC geneSymbol NA (transcript 23075961) [1]: -0.9103
- logFC geneSymbol NA (transcript 23076100) [1]: -0.9321
- logFC geneSymbol NA (transcript 23076182) [1]: -0.9773
- logFC geneSymbol NA (transcript 23076263) [1]: -0.9293
- logFC geneSymbol NA (transcript 23076348) [1]: -0.9199
- logFC geneSymbol NA (transcript 23076424) [1]: -0.8654
- logFC geneSymbol NA (transcript 23076493) [1]: -0.9827
- logFC geneSymbol NA (transcript HTA2-pos-3670232_st) [1]: -0.8727
- logFC geneSymbol NA (transcript HTA2-pos-3670240_st) [1]: -1.133
- logFC geneSymbol NA (transcript HTA2-pos-PSR05023592.hg.1) [1]: -0.8946
- logFC geneSymbol NA (transcript HTA2-pos-PSR05035203.hg.1) [1]: -1.027
- logFC geneSymbol NA (transcript HTA2-pos-PSR17008061.hg.1) [1]: -0.9289
- logFC geneSymbol NA (transcript HTA2-pos-PSR17008062.hg.1) [1]: -0.8972
- logFC geneSymbol NA (transcript HTA2-pos-PSR17008080.hg.1) [1]: -0.8914
- logFC geneSymbol NA (transcript HTA2-pos-PSR17008100.hg.1) [1]: -0.9888
- logFC geneSymbol NA (transcript HTA2-pos-PSR17013956.hg.1) [1]: -1.322
- logFC geneSymbol NA (transcript HTA2-pos-PSR19006615.hg.1) [1]: -0.8048
- logFC transcript 23071521 (geneSymbol NA) (transcript 23071521, DMSO vs 5 µM SAHA, upregulated genes): 0.9492
- logFC transcript 23074028 (geneSymbol NA) (transcript 23074028, DMSO vs 5 µM SAHA, upregulated genes): 1.15
- logFC REPS2 (transcript TC0X00006704.hg.1, DMSO vs 5 µM SAHA, upregulated genes): 2.016
- logFC FAM3C2 (transcript TC0X00006789.hg.1, DMSO vs 5 µM SAHA, upregulated genes): 1.058
- logFC TMEM35 (transcript TC0X00007935.hg.1, DMSO vs 5 µM SAHA, upregulated genes): 1.065
- logFC SMIM10 (transcript TC0X00008492.hg.1, DMSO vs 5 µM SAHA, upregulated genes): 1.0804
- logFC CDR1 (transcript TC0X00008596.hg.1, DMSO vs 5 µM SAHA, upregulated genes): 2.1035
- logFC GEMIN8 (transcript TC0X00009107.hg.1, DMSO vs 5 µM SAHA, upregulated genes): 1.085
- logFC TAB3 (transcript TC0X00009339.hg.1, DMSO vs 5 µM SAHA, upregulated genes): 0.8188
- logFC TMEM255A (transcript TC0X00010670.hg.1, DMSO vs 5 µM SAHA, upregulated genes): 1.002
- logFC DCAF6 (transcript TC0100010518.hg.1, DMSO vs 5 µM SAHA, upregulated genes): 0.8028
- logFC LAMC1 (transcript TC0100010863.hg.1, DMSO vs 5 µM SAHA, upregulated genes): 1.035
- logFC PPP2R5A (transcript TC0100011520.hg.1, DMSO vs 5 µM SAHA, upregulated genes): 0.853
- logFC VASH2 (transcript TC0100011552.hg.1, DMSO vs 5 µM SAHA, upregulated genes): 1.211
- logFC FRRS1 (transcript TC0100015049.hg.1, DMSO vs 5 µM SAHA, upregulated genes): 1.197
- logFC PLD5 (transcript TC0100017957.hg.1, DMSO vs 5 µM SAHA, upregulated genes): 1.018
- logFC FPGT-TNNI3K (transcript TC0100018235.hg.1, DMSO vs 5 µM SAHA, upregulated genes): 1.058
- logFC PPP1R21 (transcript TC0200007535.hg.1, DMSO vs 5 µM SAHA, upregulated genes): 1.2457
- logFC ACVR2A (transcript TC0200009596.hg.1, DMSO vs 5 µM SAHA, upregulated genes): 1.001
- logFC ACSL3 (transcript TC0200010907.hg.1, DMSO vs 5 µM SAHA, upregulated genes): 1.082
- logFC PIGF (transcript TC0200012489.hg.1, DMSO vs 5 µM SAHA, upregulated genes): 1.027
- logFC RND3 (transcript TC0200014597.hg.1, DMSO vs 5 µM SAHA, upregulated genes): 0.9455
- logFC ACVR1C (transcript TC0200014694.hg.1, DMSO vs 5 µM SAHA, upregulated genes): 1.493
- logFC CMTM8 (transcript TC0300006961.hg.1, DMSO vs 5 µM SAHA, upregulated genes): 0.9182
- logFC RNF13 (transcript TC0300009147.hg.1, DMSO vs 5 µM SAHA, upregulated genes): 1.125
- logFC RAP2B (transcript TC0300009229.hg.1, DMSO vs 5 µM SAHA, upregulated genes): 0.867
- logFC TIPARP (transcript TC0300009282.hg.1, DMSO vs 5 µM SAHA, upregulated genes): 0.8784
- logFC PPM1L (transcript TC0300009353.hg.1, DMSO vs 5 µM SAHA, upregulated genes): 1.659
- logFC POLR2H (transcript TC0300009706.hg.1, DMSO vs 5 µM SAHA, upregulated genes): 0.9753
- logFC SLC9A9 (transcript TC0300012686.hg.1, DMSO vs 5 µM SAHA, upregulated genes): 2.129
- logFC TNIK (transcript TC0300013108.hg.1, DMSO vs 5 µM SAHA, upregulated genes): 1.27
- logFC EFHB (transcript TC0300013950.hg.1, DMSO vs 5 µM SAHA, upregulated genes): 1.411
- logFC DGKG (transcript TC0300014083.hg.1, DMSO vs 5 µM SAHA, upregulated genes): 2.595
- logFC BMP2K (transcript TC0400007938.hg.1, DMSO vs 5 µM SAHA, upregulated genes): 0.9344
- logFC NPNT (transcript TC0400008331.hg.1, DMSO vs 5 µM SAHA, upregulated genes): 1.698
- logFC HHIP (transcript TC0400008892.hg.1, DMSO vs 5 µM SAHA, upregulated genes): 1.6713
- logFC KIAA0922 (transcript TC0400009038.hg.1, DMSO vs 5 µM SAHA, upregulated genes): 1.219
- logFC ETFDH (transcript TC0400009132.hg.1, DMSO vs 5 µM SAHA, upregulated genes): 0.9226
- logFC CLCN3 (transcript TC0400009284.hg.1, DMSO vs 5 µM SAHA, upregulated genes): 0.8527
- logFC FAM175A (transcript TC0400011208.hg.1, DMSO vs 5 µM SAHA, upregulated genes): 1.331
- logFC PAPSS1 (transcript TC0400011538.hg.1, DMSO vs 5 µM SAHA, upregulated genes): 0.9468
- logFC ETNPPL (transcript TC0400011563.hg.1, DMSO vs 5 µM SAHA, upregulated genes): 1.856
- logFC PDE5A (transcript TC0400011712.hg.1, DMSO vs 5 µM SAHA, upregulated genes): 1.355
- logFC RAPGEF2 (transcript TC0400012856.hg.1, DMSO vs 5 µM SAHA, upregulated genes): 1.1527
- logFC FAM105A (transcript TC0500006816.hg.1, DMSO vs 5 µM SAHA, upregulated genes): 1.369
- logFC SLC36A1 (transcript TC0500009123.hg.1, DMSO vs 5 µM SAHA, upregulated genes): 0.9929
- logFC ARL15 (transcript TC0500010731.hg.1, DMSO vs 5 µM SAHA, upregulated genes): 2.128
- logFC GLRX (transcript TC0500011497.hg.1, DMSO vs 5 µM SAHA, upregulated genes): 0.987
- logFC NME5 (transcript TC0500012160.hg.1, DMSO vs 5 µM SAHA, upregulated genes): 1.606
- logFC PCDH1 (transcript TC0500012294.hg.1, DMSO vs 5 µM SAHA, upregulated genes): 1.432

Source: PMC7265429, “Characterization of a new small-molecule inhibitor of HDAC6 in glioblastoma” (Cell Death & Disease, 2020)
